Results as given in patent publication US8822477B2, “Use of osmolytes obtained from extremophilic bacteria for producing medicine for the external treatment of neurodermatitis” (Bitop AG, priority 2003, dated 2014).

System: neurodermatitis
Test: topical treatment of neurodermatitis compared with placebo treatment
Assay type: in vivo
Settings: for healing of affected skin changes: in comparison to a placebo treatment; for effectiveness in the treatment of neurodermatitis: topic application

SMILES | healing of affected skin changes | effectiveness in the treatment of neurodermatitis
CC1=NCC[C@@H](C(=O)O)N1 [ectoine] | unexpectedly accelerated healing of affected skin changes | surprisingly high effectiveness
CC1=NC[C@H](O)[C@@H](C(=O)O)N1 [hydroxyectoine] | unexpectedly accelerated healing of affected skin changes | surprisingly high effectiveness
